In PubChem BioAssay AID330 (DTP/NCI, 2004):
Inconclusive results and toxic doses are left out.

Test system: P388 leukemia ip, CD2F1 mice, survival T/C
Test: NCI In Vivo Anticancer Drug Screen. Data for tumor model P388 Leukemia (intraperitoneal) in CD2F1 (CDF1) mice
Details: endpoint: median survival time, higher = longer survival
Method in brief: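 Mice carrying the transplanted tumor received test compound or vehicle. Survival was recorded in each group, and the value is the treated-group measurement divided by that of the vehicle-treated control group.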

[1] = dose: 25.0 mg/kg/injection, schedule: Q01DX001 (ip), vehicle: saline
[2] = dose: 50.0 mg/kg/injection, schedule: Q01DX001 (ip), vehicle: saline

SMILES: CC1(C)CC(C)(C)[P+]1(C)c1ccccc1
- T/C [1]: 107 % of control
- T/C [2]: 103 % of control

SMILES: O=C(c1ccccc1)C12CCC(CC1)C2
- T/C (dose: 50.0 mg/kg/injection, schedule: Q01DX009 (ip), vehicle: Klucel (hydroxypropylcellulose) (HPC)): 103 % of control
- T/C (dose: 100.0 mg/kg/injection, schedule: Q01DX009 (ip), vehicle: Klucel (hydroxypropylcellulose) (HPC)): 103 % of control
- T/C (dose: 200.0 mg/kg/injection, schedule: Q01DX009 (ip), vehicle: Klucel (hydroxypropylcellulose) (HPC)): 110 % of control

SMILES: CN(C)CCSc1nc2ccccc2o1
- T/C (dose: 60.0 mg/kg/injection, schedule: Q01DX005 (ip), vehicle: saline): 105 % of control
- T/C (dose: 120.0 mg/kg/injection, schedule: Q01DX005 (ip), vehicle: saline): 104 % of control

SMILES: C/C(=C(/O)c1ccccc1)c1nc2ccc(Cl)cc2[nH]c1=O
- T/C (dose: 60.0 mg/kg/injection, schedule: Q01DX005 (ip), vehicle: Klucel + Tween-80): 103 % of control
- T/C (dose: 120.0 mg/kg/injection, schedule: Q01DX005 (ip), vehicle: Klucel + Tween-80): 94 % of control
- T/C (dose: 240.0 mg/kg/injection, schedule: Q01DX005 (ip), vehicle: Klucel + Tween-80): 91 % of control

SMILES: CC/C(C)=N\Nc1cc(C)[nH]c(=O)c1
- T/C (dose: 100.0 mg/kg/injection, schedule: Q01DX001 (ip), vehicle: saline with Tween-80): 105 % of control
- T/C (dose: 200.0 mg/kg/injection, schedule: Q01DX001 (ip), vehicle: saline with Tween-80): 100 % of control
- T/C (dose: 400.0 mg/kg/injection, schedule: Q01DX001 (ip), vehicle: saline with Tween-80): 91 % of control

SMILES: CCOC(=O)c1ccc(C(=O)OCC)nc1
- T/C [1]: 100 % of control
- T/C [2]: 100 % of control
- T/C (dose: 100.0 mg/kg/injection, schedule: Q01DX001 (ip), vehicle: saline): 100 % of control
